Results: PubChem BioAssay AID602165 (The Scripps Research Institute Molecular Screening Center, 2012)

Target: Induced myeloid leukemia cell differentiation protein Mcl-1 (Homo sapiens) (UniProt Q07820)
Experiment: MCL1 binding to BIM-BH3 peptide, inhibitors, late-stage follow-up, biochemical, fluorescence polarization, assay provider data, round 3 (AID 602165)
Settings: GST-MCL1 / FITC-BIM-BH3 peptide fluorescence polarization

Chain of Induced myeloid leukemia cell differentiation protein Mcl-1 (Homo sapiens) (Q07820 whole entry, looked up): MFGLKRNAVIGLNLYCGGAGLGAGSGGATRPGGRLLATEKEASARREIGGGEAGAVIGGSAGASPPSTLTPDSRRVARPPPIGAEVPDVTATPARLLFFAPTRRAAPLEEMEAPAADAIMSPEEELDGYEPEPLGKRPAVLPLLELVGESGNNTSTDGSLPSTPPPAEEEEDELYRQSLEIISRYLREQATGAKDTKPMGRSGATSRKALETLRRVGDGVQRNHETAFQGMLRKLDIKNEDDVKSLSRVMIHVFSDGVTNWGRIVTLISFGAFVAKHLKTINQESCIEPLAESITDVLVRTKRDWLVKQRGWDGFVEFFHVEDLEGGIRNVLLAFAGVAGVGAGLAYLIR

Row | Compound | IC50 [nM]
1 | CN1CCN(C(c2ccc(F)cc2)c2ccc3cccnc3c2O)CC1 (stereo not drawn) | 600
2 | Oc1c(C(c2cccs2)N2CCCCC2)ccc2cccnc12 (stereo not drawn) | 2500
3 | CC(C)Oc1ccc(C(Nc2ccccn2)c2ccc3cccnc3c2O)cc1 (stereo not drawn) | 1300
4 | Oc1c(C(Nc2ccccn2)c2cccs2)ccc2cccnc12 (stereo not drawn) | 600
5 | Cc1ccnc(NC(c2cccs2)c2ccc3cccnc3c2O)c1 (stereo not drawn) | 400

Results, then the compound that gave them:

Row | IC50 [nM] | Compound
6 | 1600 | CCN1CCN(C(c2cccs2)c2ccc3cccnc3c2O)CC1 (stereo not drawn)
7 | 3300 | OCCN1CCN(C(c2cccs2)c2ccc3cccnc3c2O)CC1 (stereo not drawn)
8 | 500 | Oc1c(C(c2cccs2)N2CCN(c3ccccn3)CC2)ccc2cccnc12 (stereo not drawn)
